From patent US20260240879A1, “TOPICAL PALA THERAPY FOR CANCER” (priority 2023, published 2026)
Entries after “also recorded” stand apart in the source; their conditions may differ.

Key:
[1] = system: cytokines and chemokines in treated skin; assay: Cytokine/chemokine profile of treated skin lysates (U-PLEX); conditions: for expression of inflammatory cytokine/chemokine panel in treated skin (in words): daily topical 2% PALA, 5% IMQ or 5% 5-FU, 7 days, vs vehicle; for IL-17C, Mean (SEM) / IL-17A, Mean (SEM) / GM-CSF, Mean (SEM) / IL-6, Mean (SEM) / KC, Mean (SEM) / RANTES, Mean (SEM): treated skin lysate, day 7, 2% PALA, 5% IMQ, 5% 5-FU, n = 5/group; for IL-17C, Mean (SEM): vehicle 0.5 (0.03); for IL-17A, Mean (SEM): vehicle 0.6 (0.1); for GM-CSF, Mean (SEM): vehicle 0.8 (0.1); for IL-6, Mean (SEM): vehicle 25.4 (3.2); for KC, Mean (SEM): vehicle 26.3 (6.4); for RANTES, Mean (SEM): vehicle 43.7 (3.2)
Method: The topical formulations of 2% PALA/50% acetone/10% glycerol, 5% imiquimod (IMQ), 5% 5-FU (5-FU), vehicle (50% acetone/10% glycerol) control, and Aquaphor were applied (~0.05 g/mouse) daily to the dorsal skin of SKH1-Elite female mice (8 weeks of age; n=5/group) for 7 days. […] Mice were monitored daily for weight change, skin appearance, and signs of distress.
Skin protein lysates were made by homogenizing frozen tissue with a pestle and scissors in RIPA buffer (50 mM Tris, pH8, 150 mM NaCl, 0.5% sodium deoxycholate, 1% NP-40, 0.1% sodium dodecyl sulfate, lx Pierce protease inhibitor cocktail (A32965, ThermoFisher)). Cytokines and chemokines were quantified from 25 μg of lysate using a custom 10-plex U-PLEX panel (K15069L-2; Meso Scale Discovery) that included: GM-CSF, KC/CXCL1, IFNα, IFNβ, IFNγ, IL-10, IL-6, IL-12p70, IL-17A, IL-17C, IL-17F, IP-10/CXCL10, MCP-1/CCL2, RANTES/CCL5, and TNFα. The MESO SECTOR S 600 plate reader (ICOAA-0; Meso Scale Discovery) was used to collect the U-Plex data and data was analyzed using MSD Discovery Workbench 4.0 software.

[2] = Skin irritation testing, daily topical application for 7 days; conditions: for skin histology on day 7 / spleen weight on day 7 / skin irritation apparent: daily topical 2% PALA, 5% IMQ or 5% 5-FU; for skin irritation apparent / weight change: naive mice; for weight change: daily topical 5% IMQ or 5% 5-FU, in contrast to vehicle and 2% PALA
Method: The topical formulations of 2% PALA/50% acetone/10% glycerol, 5% imiquimod (IMQ), 5% 5-FU (5-FU), vehicle (50% acetone/10% glycerol) control, and Aquaphor were applied (~0.05 g/mouse) daily to the dorsal skin of SKH1-Elite female mice (8 weeks of age; n=5/group) for 7 days. […] Mice were monitored daily for weight change, skin appearance, and signs of distress. […] At harvest, spleen weights and colon lengths were measured.

[3] = system: UVB-induced NMSC (AK lesions and SCC tumors); assay: UVB-induced NMSC mouse model: tumor number, area, growth phenotype and grade; conditions: 2% PALA or 5% IMQ, daily, 4 weeks
[4] = Toxicity markers in UVB-tumor-bearing mice under topical treatment (weight, SAA, colon length, fecal LCN2); conditions: 5% (w/w) 5-fluorouracil, daily topical
Method: Serum amyloid A levels were measured in plasma samples using the Mouse SAA ELISA kit (E-90SAA, Immunology Consultants Laboratory, Inc.) according to manufacturer's instructions. Lipocalin-2 (LCN2) was quantified from pre-weighed stool samples homogenized in 0.5 mL PBS using the Mouse Lipocalin-2/NGAL DuoSet ELISA (DY1857) and DuoSet Ancillary Reagent Kit 2 (DY008, R&D Systems).

Structure (SMILES)	expression of inflammatory cytokine/chemokine panel in treated skin (in words) [1]	IL-17C, Mean (SEM) [1]	IL-17A, Mean (SEM) [1]	GM-CSF, Mean (SEM) [1]	IL-6, Mean (SEM) [1]	KC, Mean (SEM) [1]	RANTES, Mean (SEM) [1]	skin histology on day 7 [2]	spleen weight on day 7 [2]	skin irritation apparent [2] [days]	weight change [2]	tumor levels of interleukin-1β [3]	early termination of animals at the request of veterinary staff [4]
CC(C)Cn1cnc2c(N)nc3ccccc3c21 [IMQ, imiquimod]	upregulation of IL-17 family cytokines; also recorded: cutaneous levels of RANTES and GM-CSF were elevated	1.0 (0.04)	1.6 (0.1)	2.5 (0.7)	61.3 (10.0)	28.6 (5.9)	141.0 (36.1)	overt thickening of the epidermis	splenomegaly	2	significant weight loss	elevated	
O=c1[nH]cc(F)c(=O)[nH]1 [Formulation 5-FU, fluorouracil]	increased expression of IL-6, IL-17C, KC, and GM-CSF	1.4 (0.1)	1.2 (0.4)	2.6 (0.2)	268.8 (104.8)	114.5 (16.4)	17.7 (5.0)	epithelial erosion	significant decreases in spleen weight	5	significant weight loss		terminated after 2.5 weeks of treatment
